Assays:
[1] = molecular target: T1, Activated Factor XIII (FXIIIa) (Homo sapiens, UniProt P00488); format: biochemical
T1 sequence (P00488 39-732 limits assumed): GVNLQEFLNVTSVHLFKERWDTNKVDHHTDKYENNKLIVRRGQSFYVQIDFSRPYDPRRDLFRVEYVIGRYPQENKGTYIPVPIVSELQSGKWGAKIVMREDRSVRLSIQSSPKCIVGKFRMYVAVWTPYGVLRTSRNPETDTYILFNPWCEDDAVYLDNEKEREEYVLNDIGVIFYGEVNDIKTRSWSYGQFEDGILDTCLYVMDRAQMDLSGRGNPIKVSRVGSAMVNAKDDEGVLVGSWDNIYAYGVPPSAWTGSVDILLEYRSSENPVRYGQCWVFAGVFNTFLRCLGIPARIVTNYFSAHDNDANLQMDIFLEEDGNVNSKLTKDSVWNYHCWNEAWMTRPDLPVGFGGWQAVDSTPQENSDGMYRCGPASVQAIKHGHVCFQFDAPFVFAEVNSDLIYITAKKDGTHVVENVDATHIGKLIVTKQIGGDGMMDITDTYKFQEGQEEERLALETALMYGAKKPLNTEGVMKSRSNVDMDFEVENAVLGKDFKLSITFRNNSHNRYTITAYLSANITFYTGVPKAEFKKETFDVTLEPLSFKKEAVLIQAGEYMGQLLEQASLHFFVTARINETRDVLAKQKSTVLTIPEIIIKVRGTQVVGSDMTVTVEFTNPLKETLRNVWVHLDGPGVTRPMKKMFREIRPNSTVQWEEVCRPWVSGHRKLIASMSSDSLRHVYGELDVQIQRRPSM

FXIIIa = conditions: coupled uv/vis assay, derived earlier; cited from earlier work

| Sequence | Km (FXIIIa) | other results |
| --- | --- | --- |
| SGDQRQVDLIPKKAT [S. Aureus Fnb A (100–114)] | – | Km better than S. Aureus Fnb A (100–110) ([1]; P < 0.05): almost two-fold better |
| NQEKVSPLTLLKLGN [α2AP (1–15) Q4K] | 426 ± 93 µM | – |
| FQSGQVLAALPRTSR [TAFI (1–15)] | – | Km weaker than α2AP (1–15) K12R and S. Aureus Fnb A (100–114) [1]: more than 5 fold |
| NQEQVSPLTLLKLGN [α2AP (1–15)] | 459 ± 50 µM | – |
